Source: ChEMBL document CHEMBL1153169, “Structure-activity relationships of the ultrapotent vanilloid resiniferatoxin (RTX): The side chain benzylic methylene” (Bioorg Med Chem Lett, 2010)
pEC50, pIC50: −log10 of the molar value.

Tests used:
[1] = target: T1, Transient receptor potential cation channel subfamily V member 1 (Homo sapiens, UniProt Q8NER1); assay: Agonist activity at human TRPV1 expressed in HEK293 cells assessed as increase in intracellular calcium level; type: functional, cell-based
[2] = target: T1, Transient receptor potential cation channel subfamily V member 1; assay: Antagonist activity at human TRPV1 expressed in HEK293 cells assessed as inhibition of intracellular calcium level; type: functional, cell-based
[3] = target: T1, Transient receptor potential cation channel subfamily V member 1; assay: Selectivity ratio of EC50 for drug to capsaicin for human TRPV1 expressed in HEK293 cells assessed as increase in intracellular calcium level; type: cell-based

T1 sequence (Q8NER1 whole entry): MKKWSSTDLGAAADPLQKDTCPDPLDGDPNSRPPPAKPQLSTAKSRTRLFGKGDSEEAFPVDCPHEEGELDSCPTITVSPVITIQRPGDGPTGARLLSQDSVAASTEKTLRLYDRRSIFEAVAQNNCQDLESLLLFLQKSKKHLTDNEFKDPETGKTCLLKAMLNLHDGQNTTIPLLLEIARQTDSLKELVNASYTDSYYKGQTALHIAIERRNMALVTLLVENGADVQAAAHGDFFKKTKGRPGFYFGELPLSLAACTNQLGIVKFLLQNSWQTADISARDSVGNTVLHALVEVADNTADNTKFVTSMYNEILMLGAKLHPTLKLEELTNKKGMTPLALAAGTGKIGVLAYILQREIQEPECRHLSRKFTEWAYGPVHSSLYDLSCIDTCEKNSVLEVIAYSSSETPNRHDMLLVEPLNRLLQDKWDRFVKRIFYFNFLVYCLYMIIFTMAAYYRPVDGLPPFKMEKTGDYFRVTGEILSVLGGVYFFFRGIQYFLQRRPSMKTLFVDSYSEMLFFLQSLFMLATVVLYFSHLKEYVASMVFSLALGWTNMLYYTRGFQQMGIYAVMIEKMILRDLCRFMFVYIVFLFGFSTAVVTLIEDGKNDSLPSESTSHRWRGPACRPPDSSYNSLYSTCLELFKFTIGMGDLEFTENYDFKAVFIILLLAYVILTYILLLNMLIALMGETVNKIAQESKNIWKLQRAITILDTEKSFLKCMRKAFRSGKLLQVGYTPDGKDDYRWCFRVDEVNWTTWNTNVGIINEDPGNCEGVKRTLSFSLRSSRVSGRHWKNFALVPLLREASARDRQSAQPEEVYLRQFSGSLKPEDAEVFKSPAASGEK

SMILES	pEC50 [1]	pIC50 [2]	Ratio EC50 [3]
C=C(C(=O)OCC1=C[C@H]2[C@H]3O[C@@]4(Cc5ccccc5)O[C@@]2([C@H](C)C[C@]3(C(=C)C)O4)[C@@H]2C=C(C)C(=O)[C@@]2(O)C1)c1ccc(O)c(OC)c1	9.82	–	–
C=C(C)[C@]12C[C@@H](C)[C@@]34O[C@](Cc5ccccc5)(O[C@@H]1[C@@H]3C=C(COC(=O)C(O)c1ccc(O)c(OC)c1)C[C@]1(O)C(=O)C(C)=C[C@@H]41)O2 (some centres undefined)	7.72	–	–
C=C(C)[C@]12C[C@@H](C)[C@@]34O[C@](Cc5ccccc5)(O[C@@H]1[C@@H]3C=C(COC(=O)Cc1cc(I)c(O)c(OC)c1)C[C@]1(O)C(=O)C(C)=C[C@@H]41)O2 [IODORESINIFERATOXIN]	–	5.40	–
C=C(C)[C@]12C[C@@H](C)[C@@]34O[C@](Cc5ccccc5)(O[C@@H]1[C@@H]3C=C(COC(=O)C(OC(C)=O)c1ccc(O)c(OC)c1)C[C@]1(O)C(=O)C(C)=C[C@@H]41)O2 (some centres undefined)	9.19	–	–
C=C(C)[C@]12C[C@@H](C)[C@@]34O[C@](Cc5ccccc5)(O[C@@H]1[C@@H]3C=C(COC(=O)C(C)c1ccc(O)c(OC)c1)C[C@]1(O)C(=O)C(C)=C[C@@H]41)O2 (some centres undefined)	9.01	–	–
C=C(C)[C@]12C[C@@H](C)[C@@]34O[C@](Cc5ccccc5)(O[C@@H]1[C@@H]3C=C(COC(=O)Oc1cc(I)c(O)c(OC)c1)C[C@]1(O)C(=O)C(C)=C[C@@H]41)O2	11.33	–	–
C=C(C)[C@]12C[C@@H](C)[C@@]34O[C@](Cc5ccccc5)(O[C@@H]1[C@@H]3C=C(COC(=O)Oc1ccc(O)c(OC)c1)C[C@]1(O)C(=O)C(C)=C[C@@H]41)O2	7.86	–	3
C=C(C)[C@]12C[C@@H](C)[C@@]34O[C@](Cc5ccccc5)(O[C@@H]1[C@@H]3C=C(COC(=O)C(OC)c1ccc(O)c(OC)c1)C[C@]1(O)C(=O)C(C)=C[C@@H]41)O2 (some centres undefined)	7.76	–	–
